Experimental data as given in patent US20020160968A1, “Inhibitors of cellular niacinamide mononucleotide formation and their use in cancer therapy” (Klinge Pharma GmbH, priority 1999, published 2002).

Assays:
[1] = tested on: HepG2 cells; assay: Cell growth under high-density conditions (SRB assay), delayed cell death (DCD); assay type: cell-based, human; settings: Homo sapiens, high density HepG2 cultures
[2] = biological target: T1, niacinamide phosphoribosyltransferase (NAPRT, EC 2.4.2.12) (Homo sapiens, UniProt P43490); assay: Niacinamide phosphoribosyltransferase (NAPRT) assay, protamine-treated cytoplasmic fraction of K-562 cells; assay type: biochemical; settings: for NAM: niacinamide mononucleotide formed, controls 79.1 and 71.8; for NA: niacinamide remaining, controls 389.7 and 397.0; for NAM [%] / NA [%]: portion of total radioactivity
T1 construct: protamine-treated cytoplasmic fraction of K-562 cells as the enzyme source; endogenous in cells; host or cells: K-562 (ATCC CCL 243), freeze-thaw lysate, 23,000 x g supernatant treated with protamine sulfate
T1 sequence (P43490 whole entry): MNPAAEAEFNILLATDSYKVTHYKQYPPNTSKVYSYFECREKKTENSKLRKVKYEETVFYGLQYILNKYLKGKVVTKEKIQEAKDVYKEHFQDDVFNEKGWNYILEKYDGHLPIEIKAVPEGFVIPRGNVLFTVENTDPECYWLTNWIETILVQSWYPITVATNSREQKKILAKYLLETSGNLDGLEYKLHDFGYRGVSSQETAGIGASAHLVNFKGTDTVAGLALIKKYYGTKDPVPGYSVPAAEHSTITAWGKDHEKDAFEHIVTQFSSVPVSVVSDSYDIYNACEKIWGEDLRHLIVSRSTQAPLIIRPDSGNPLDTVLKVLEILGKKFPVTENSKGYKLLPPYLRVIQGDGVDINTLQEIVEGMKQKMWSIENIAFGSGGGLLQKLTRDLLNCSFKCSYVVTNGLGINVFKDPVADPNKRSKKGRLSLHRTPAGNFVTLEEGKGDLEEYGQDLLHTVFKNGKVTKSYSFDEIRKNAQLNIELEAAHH
Experimental: The effect of the compounds on the enzyme niacinamide phosphoribosyltransferase (NAPRT, EC 2.4.2.12) was investigated using for example protamine-treated cytoplasmic fraction of K-562 cells as the enzyme source according to the NAPRT assay described in the experimental part below. The investigated compounds were used in concentrations of 10 μM, except for K22387 and K22133 where the concentration was 1 μM.
The assay is based on the amount of radioactive incorporation from ^14C-labelled niacinamide into niacinamide mononucleotide (NAM). NAM is subsequently separated from niacinamide (NA) by thin-layer chromatography and its quantity is determined by autoradiography.
Niacinamide Phosphoribosyltransferase (NAPRT) Assay
The human cell line K-562 (chronic myelogenous leukaemia) is obtained from the American Type Culture Collection (ATCC CCL 243), Rockville, Md., USA. The K-562 cells are cultured in RPMI (Sigma, Deisenhofen, Germany, Product No.: R6504) containing 10% foetal calf serum (PAN Systems GmbH, Aidenbach, Germany), 2.2 g/l NaHCO3 (Merck, Darmstadt, Germany), 50,000 IU/l penicillin and 50 mg/l streptomycin (Sigma).
The K-562 cells are grown in RPMI supplemented with 10% FCS at 37° C. and 100% humidity in a 5% CO2 atmosphere up to a density of 2×10^6 cells per ml. Under these conditions, the cells grow logarithmically with a generation time of 24 hours. The cells are harvested by aspiration and centrifugation (250×g, 10 min, RT). Thereafter, the cells are washed at least 3 times by repeated centrifugation (250×g, 10 min, RT) and resuspension in CMF-PBS. After counting the cell suspension in a haematocytometer, the cells are spun into a tight pellet (390×g, […], RT) and the supernatant is carefully drawn off with a Pasteur pipette. The cells are then vortexed into suspension in sufficient lysis buffer to give a final concentration of 3×10^7 cells per ml. The suspension is frozen at −80° C. for at least one day and thawed slowly at room temperature to break up the cells. The breakage is usually greater than 95%, as determined by trypan blue exclusion. Following centrifugation at 23,000×g for 90 min at 0° C., the clarified supernatant is recovered on ice and 70 μl of 1% protamine sulfate is added per ml of supernatant. After 15 min on ice, the cloudy suspension is centrifuged a further 30 min at 23,000×g and 0° C. The final supernatant is stored in small aliquots at […] This supernatant contains about 950 to 1440 μg protein per ml. 120 to 140 μg protein per sample is used in the NAPRT assay (total assay volume: 0.5 ml).
The niacinamide phosphoribosyltransferase activity is determined in a reaction solution of 0.5 ml consisting of 5 mM MgCl2, 2 mM ATP, 0.5 mM PRPP, and [^14C]niacinamide (10^−5 M to 10^−7 M) in 50 mM Tris buffer pH 8.8 (final concentrations in the assay). The reaction is started by adding 100 to 120 μl cell extract. After incubation for 1 hour at 37° C., the enzyme reaction is stopped by adding cold niacinamide (50 μl of a 100 mM niacinamide solution per 0.5 ml reaction mixture) and by heating on a heating block (2 min, 105° C.). The precipitate is removed by centrifugation (2,500×g, 10 min, 4° C.) and the supernatant is collected into a […] polypropylene vial with screw cap and stored at −20° C. until further analysis. A 10 μl aliquot is taken from the supernatant to determine the total amount of radioactivity.
The ^14C-labelled components of the reaction mixture are separated and identified using thin-layer chromatography (TLC). 5 to 7.5 μl of each sample is transferred to a cellulose TLC foil using an automated sample applicator. The cellulose foil is developed using 1 M NH4 acetate:ethanol (3:7) as solvent. The chromatogram is run with added non-radioactive standards of NAD, NADP, NAM and niacinamide, and the spots were identified by UV absorption (RF values see Table 7). For autoradiography, the chromatogram is exposed to an imaging plate BAS-IIIs in a hypercassette for at least two days. […]

[3] = minimum concentration which, despite initial growth, induced cell death below the number of initially seeded cells, Table 2
[4] = compound 10 μM, controls 16.88 and 15.32
[5] = compound 10 μM, controls 83.12 and 84.68

SMILES	minimal effective concentration ([1]; Table 5) [µM]	minimal effective concentration [1, 3] [µM]	NAM ([2]; compound 10 μM) [pmol/h]	NA ([2]; compound 10 μM) [pmol/h]	NAM [%] [2, 4] [%]	NA [%] [2, 5] [%]	NAM ([2]; compound 1 μM) [pmol/h]	NA ([2]; compound 1 μM) [pmol/h]	NA [%] ([2]; compound 1 μM)	NAM [%] ([2]; compound 1 μM)
NC(Cc1ccc(O)c(N=Nc2ccccc2C(=O)N2CCC(CCCCNC(=O)/C=C/c3cccnc3)CC2)c1)C(=O)O (stereo not drawn) [Compound K22408, 2-amino-3-[4-hydroxy-3-(2-{4-[4-(3-pyridine-3-yl-acryloyl-amino)-butyl]-piperidine-1-carbonyl}-phenylazo)-phenyl]-propanoic acid trihydrate]	1	1	0.0	468.8	0.00	100.00	–	–	–	–
O=C(NCCCCC1CCN(S(=O)(=O)c2ccc3ccccc3c2)CC1)Nc1cccnc1 [Compound K22365, 1-{4-[1-(naphthalene-2-sulfonyl)-piperidine-4-yl)-butyl}-3-pyridine-3-yl-urea]	3	3	0.0	468.8	0.00	100.00	–	–	–	–
O=C(NCCCCC1CCN(C(=O)N2c3ccccc3CCc3ccccc32)CC1)Nc1cccnc1 [Compound K22387, 1-{4-[1-(1,11-dihydro-dibenzene[b,f]azepine-5-carbonyl)-piperidine-4-yl]-butyl}-3-pyridine-3-yl-urea]	0.01	0.01	–	–	–	–	0.0	468.8	100.00	0.00
Cn1c(CCNC(=O)/C=C/c2cccnc2)ccc1CN1CCN(C(c2ccccc2)c2ccccc2)CC1 [Compound K22350, N-{2-[5-(4-benzhydryl-piperazine-1-yl-methyl)-1-methyl-1H-pyrrole-2-yl]-ethyl}-3-pyridine-3-yl-acrylamide]	1	1	0.0	468.8	0.00	100.00	–	–	–	–
